Reference: patent US4508663A, “Process for preparing thiosulfenamide derivatives of N-phosphonomethylglycinonitriles” (Monsanto Company, priority 1983, dated 1985)

Columns and labels:
Assay in all cases: post-emergence herbicidal activity, greenhouse
Type in all cases: in vivo
Barnyardgrass = system: Barnyardgrass
In short: (§1)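 Plants grown from seed or perennial propagules in greenhouse soil pans were sprayed at two to three weeks with compound solution or suspension containing about 0.4% emulsifier, at the stated application rates. Injury relative to untreated controls was scored at approximately two and four weeks after treatment on a post-emergence activity index.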

Canada Thistle = conditions: Table I
In short: as §1

Cocklebur = system: Cocklebur
In short: as §1

Crabgrass = conditions: Table II, 4 WAT
In short: as §1

Downy Brome = system: Downy Brome
In short: as §1

Hemp Sesbania = conditions: Table II, 4 WAT
In short: as §1

Johnsongrass = conditions: Table I
In short: as §1

Lambsquarters = system: Lambsquarters
In short: as §1

Morningglory = system: Morningglory
In short: as §1

Panicum Spp = conditions: Table II, 4 WAT
In short: as §1

Quackgrass = conditions: Table I
In short: as §1

Rice = conditions: Table II, 4 WAT
In short: as §1

Smartweed = system: Smartweed
In short: as §1

Sorghum = conditions: Table II, 4 WAT
In short: as §1

Soybean = conditions: Table II, 4 WAT
In short: as §1

Sugar Beet = conditions: Table II, 4 WAT
In short: as §1

Velvetleaf = system: Velvetleaf
In short: as §1

Wheat = conditions: Table II, 4 WAT
In short: as §1

Wild Buckwheat = conditions: Table II, 4 WAT
In short: as §1

Yellow Nutsedge = conditions: Table I
In short: as §1

In the case of N#CCN(CP(=O)(Oc1ccccc1)Oc1ccccc1)SSc1cccc(C(F)(F)F)c1 [IV, Phosphonic acid, [[(cyanomethyl)[[3-(trifluoromethyl)phenyl]dithio]amino]methyl]-, diphenyl ester], the “post-emergence herbicidal activity index” value (Barnyardgrass; Table I, 2 WAT, 5.6 kg/h) is reported as 2 (50-74% control), the “post-emergence herbicidal activity index” value (Barnyardgrass; Table I, 2 WAT, 11.2 kg/h) is reported as 2 (50-74% control) and the “post-emergence herbicidal activity index” value (Barnyardgrass; Table I, 4 WAT, 5.6 kg/h) is reported as 2 (50-74% control). The “post-emergence herbicidal activity index” value (Barnyardgrass; Table I, 4 WAT, 11.2 kg/h) was 2 (50-74% control), the “post-emergence herbicidal activity index” value (Barnyardgrass; Table II, 4 WAT, 1.12 kg/h) was 0 (0-24% control) and the “post-emergence herbicidal activity index” value (Barnyardgrass; Table II, 4 WAT, 5.6 kg/h) was 3 (75-99% control). For the same compound, the “post-emergence herbicidal activity index” value (Canada Thistle; 2 WAT, 5.6 kg/h) was 1 (25-49% control), the “post-emergence herbicidal activity index” value (Canada Thistle; 2 WAT, 11.2 kg/h) was 1 (25-49% control) and the “post-emergence herbicidal activity index” value (Canada Thistle; 4 WAT, 5.6 kg/h) was 2 (50-74% control). The “post-emergence herbicidal activity index” value (Canada Thistle; 4 WAT, 11.2 kg/h) was 1 (25-49% control), the “post-emergence herbicidal activity index” value (Cocklebur; Table I, 2 WAT, 5.6 kg/h) was 1 (25-49% control) and the “post-emergence herbicidal activity index” value (Cocklebur; Table I, 2 WAT, 11.2 kg/h) was 2 (50-74% control). The “post-emergence herbicidal activity index” value (Cocklebur; Table I, 4 WAT, 5.6 kg/h) was 2 (50-74% control), the “post-emergence herbicidal activity index” value (Cocklebur; Table I, 4 WAT, 11.2 kg/h) was 2 (50-74% control) and the “post-emergence herbicidal activity index” value (Cocklebur; Table II, 4 WAT, 1.12 kg/h) was 1 (25-49% control). For the same compound, the “post-emergence herbicidal activity index” value (Cocklebur; Table II, 4 WAT, 5.6 kg/h) was 3 (75-99% control), the “post-emergence herbicidal activity index” value (Crabgrass; 1.12 kg/h) was 3 (75-99% control) and the “post-emergence herbicidal activity index” value (Crabgrass; 5.6 kg/h) was 3 (75-99% control). The “post-emergence herbicidal activity index” value (Downy Brome; Table I, 2 WAT, 5.6 kg/h) was 1 (25-49% control), the “post-emergence herbicidal activity index” value (Downy Brome; Table I, 2 WAT, 11.2 kg/h) was 0 (0-24% control) and the “post-emergence herbicidal activity index” value (Downy Brome; Table I, 4 WAT, 5.6 kg/h) was 1 (25-49% control). The “post-emergence herbicidal activity index” value (Downy Brome; Table I, 4 WAT, 11.2 kg/h) was 2 (50-74% control), the “post-emergence herbicidal activity index” value (Downy Brome; Table II, 4 WAT, 1.12 kg/h) was 0 (0-24% control) and the “post-emergence herbicidal activity index” value (Downy Brome; Table II, 4 WAT, 5.6 kg/h) was 1 (25-49% control). For the same compound, the “post-emergence herbicidal activity index” value (Hemp Sesbania; 1.12 kg/h) was 0 (0-24% control), the “post-emergence herbicidal activity index” value (Hemp Sesbania; 5.6 kg/h) was 1 (25-49% control) and the “post-emergence herbicidal activity index” value (Johnsongrass; 2 WAT, 5.6 kg/h) was 2 (50-74% control). The “post-emergence herbicidal activity index” value (Johnsongrass; 2 WAT, 11.2 kg/h) was 1 (25-49% control), the “post-emergence herbicidal activity index” value (Johnsongrass; 4 WAT, 5.6 kg/h) was 3 (75-99% control) and the “post-emergence herbicidal activity index” value (Johnsongrass; 4 WAT, 11.2 kg/h) was 1 (25-49% control). For the same compound, the “post-emergence herbicidal activity index” value (Lambsquarters; Table I, 2 WAT, 5.6 kg/h) was 3 (75-99% control), the “post-emergence herbicidal activity index” value (Lambsquarters; Table I, 2 WAT, 11.2 kg/h) was 3 (75-99% control) and the “post-emergence herbicidal activity index” value (Lambsquarters; Table I, 4 WAT, 5.6 kg/h) was 3 (75-99% control). The “post-emergence herbicidal activity index” value (Lambsquarters; Table I, 4 WAT, 11.2 kg/h) was 4 (100% control), the “post-emergence herbicidal activity index” value (Lambsquarters; Table II, 4 WAT, 1.12 kg/h) was 2 (50-74% control) and the “post-emergence herbicidal activity index” value (Lambsquarters; Table II, 4 WAT, 5.6 kg/h) was 4 (100% control). The “post-emergence herbicidal activity index” value (Morningglory; Table I, 2 WAT, 5.6 kg/h) was 1 (25-49% control), the “post-emergence herbicidal activity index” value (Morningglory; Table I, 2 WAT, 11.2 kg/h) was 1 (25-49% control) and the “post-emergence herbicidal activity index” value (Morningglory; Table I, 4 WAT, 5.6 kg/h) was 3 (75-99% control). For the same compound, the “post-emergence herbicidal activity index” value (Morningglory; Table I, 4 WAT, 11.2 kg/h) was 2 (50-74% control), the “post-emergence herbicidal activity index” value (Morningglory; Table II, 4 WAT, 1.12 kg/h) was 1 (25-49% control) and the “post-emergence herbicidal activity index” value (Morningglory; Table II, 4 WAT, 5.6 kg/h) was 2 (50-74% control). For the same compound, the “post-emergence herbicidal activity index” value (Panicum Spp; 1.12 kg/h) was 0 (0-24% control), the “post-emergence herbicidal activity index” value (Panicum Spp; 5.6 kg/h) was 2 (50-74% control) and the “post-emergence herbicidal activity index” value (Quackgrass; 2 WAT, 5.6 kg/h) was 1 (25-49% control). For the same compound, the “post-emergence herbicidal activity index” value (Quackgrass; 2 WAT, 11.2 kg/h) was 0 (0-24% control), the “post-emergence herbicidal activity index” value (Quackgrass; 4 WAT, 5.6 kg/h) was 2 (50-74% control) and the “post-emergence herbicidal activity index” value (Quackgrass; 4 WAT, 11.2 kg/h) was 0 (0-24% control). For the same compound, the “post-emergence herbicidal activity index” value (Rice; 1.12 kg/h) was 0 (0-24% control), the “post-emergence herbicidal activity index” value (Rice; 5.6 kg/h) was 2 (50-74% control) and the “post-emergence herbicidal activity index” value (Smartweed; Table I, 2 WAT, 5.6 kg/h) was 0 (0-24% control). For the same compound, the “post-emergence herbicidal activity index” value (Smartweed; Table I, 2 WAT, 11.2 kg/h) was 1 (25-49% control), the “post-emergence herbicidal activity index” value (Smartweed; Table I, 4 WAT, 5.6 kg/h) was 0 (0-24% control) and the “post-emergence herbicidal activity index” value (Smartweed; Table I, 4 WAT, 11.2 kg/h) was 4 (100% control). For the same compound, the “post-emergence herbicidal activity index” value (Smartweed; Table II, 4 WAT, 1.12 kg/h) was 1 (25-49% control), the “post-emergence herbicidal activity index” value (Smartweed; Table II, 4 WAT, 5.6 kg/h) was 2 (50-74% control) and the “post-emergence herbicidal activity index” value (Sorghum; 1.12 kg/h) was 2 (50-74% control). The “post-emergence herbicidal activity index” value (Sorghum; 5.6 kg/h) was 3 (75-99% control), the “post-emergence herbicidal activity index” value (Soybean; 1.12 kg/h) was 1 (25-49% control) and the “post-emergence herbicidal activity index” value (Soybean; 5.6 kg/h) was 1 (25-49% control). The “post-emergence herbicidal activity index” value (Sugar Beet; 1.12 kg/h) was 0 (0-24% control), the “post-emergence herbicidal activity index” value (Sugar Beet; 5.6 kg/h) was 0 (0-24% control) and the “post-emergence herbicidal activity index” value (Velvetleaf; Table I, 2 WAT, 5.6 kg/h) was 0 (0-24% control). For the same compound, the “post-emergence herbicidal activity index” value (Velvetleaf; Table I, 2 WAT, 11.2 kg/h) was 0 (0-24% control), the “post-emergence herbicidal activity index” value (Velvetleaf; Table I, 4 WAT, 5.6 kg/h) was 1 (25-49% control) and the “post-emergence herbicidal activity index” value (Velvetleaf; Table I, 4 WAT, 11.2 kg/h) was 1 (25-49% control). The “post-emergence herbicidal activity index” value (Velvetleaf; Table II, 4 WAT, 1.12 kg/h) was 0 (0-24% control), the “post-emergence herbicidal activity index” value (Velvetleaf; Table II, 4 WAT, 5.6 kg/h) was 1 (25-49% control) and the “post-emergence herbicidal activity index” value (Wheat; 1.12 kg/h) was 0 (0-24% control). For the same compound, the “post-emergence herbicidal activity index” value (Wheat; 5.6 kg/h) was 1 (25-49% control), the “post-emergence herbicidal activity index” value (Wild Buckwheat; 1.12 kg/h) was 0 (0-24% control) and the “post-emergence herbicidal activity index” value (Wild Buckwheat; 5.6 kg/h) was 2 (50-74% control). For the same compound, the “post-emergence herbicidal activity index” value (Yellow Nutsedge; 2 WAT, 5.6 kg/h) was 1 (25-49% control), the “post-emergence herbicidal activity index” value (Yellow Nutsedge; 2 WAT, 11.2 kg/h) was 1 (25-49% control) and the “post-emergence herbicidal activity index” value (Yellow Nutsedge; 4 WAT, 5.6 kg/h) was 2 (50-74% control). The “post-emergence herbicidal activity index” value (Yellow Nutsedge; 4 WAT, 11.2 kg/h) was 2 (50-74% control).
